Assay results as given in patent US8895625B2, “Protective effect of thymoquinone in sepsis” (King Saud University, priority 2009, dated 2014).

Assays:
[1] = test system: endotoxin (lipopolysaccharide, LPS Escherichia coli O111:B4) induced sepsis; test: Endotoxin sepsis model (LPS challenge), survival by Kaplan-Meier; type: in vivo, mice; conditions: 4 h before 2 mg/kg LPS, followed 4 days, P<0.01
Method: 1.1 Endotoxin Sepsis Model (LPS Escherichia coli O111:B4)
Two groups of animals (ten mice each) weighing ˜25 g were treated intraperitoneally with 1 or 2 mg/kg (single dose) of thymoquinone prepared in 10% DMSO; a control group (treated with only 10% DMSO) was also simultaneously run. Four hours after thymoquinone treatment, all groups were challenged with 2 mg/kg endotoxin (lipopolysaccharide, LPS) prepared in normal saline. Mortality of groups was followed for 4 days, and survival (primary endpoint) was calculated using Kaplan-Meier analysis.

E. coli (ATCC-25992) = test: Gram-negative bacteria sepsis model (E. coli challenge), survival by Kaplan-Meier; type: in vivo, mice; conditions: followed 2 days, P<0.01
Method: 1.2 Gram-Negative Bacteria Sepsis Model
Two groups of animals (twelve mice each) weighing ˜25 g were treated intraperitoneally with 0.75 or 1 mg/kg/day (for three days) of thymoquinone prepared in 10% DMSO; a control group (treated with only 10% DMSO) was also simultaneously run. Four hours after thymoquinone treatment, all groups were challenged with 2 μl/g E. coli (ATCC-25992, […] CFU/ml) prepared in normal saline. Mortality in treated groups was followed for 2 days, and survival (primary endpoint) was calculated using Kaplan-Meier analysis.

[2] = test system: sepsis caused by E. coli bacteria; test: Biochemical blood analyses following E. coli administration; type: in vivo, mice; conditions: 6 h after E. coli administration
Method: (§1) In another set of experiments and after 6 h of E. coli administration, animals were lightly anesthetized with ether, and blood samples were collected, centrifuged and the resultant plasma were stored at −80° C. and used within 48 h. The levels of TNF-α, IL-1α, IL-2 and IL-10 were determined using an ELISA technique. Important biochemical parameters including blood serum creatinine, blood urea nitrogen, alanine transferase (ALT), albumin, and total lactate dehydrogenase (LDH) and creatinine kinase (CK) were also assessed in treated animals using commercially available kits according to the manufacturer's directions.

[3] = test system: sepsis induced by E. coli bacteria; test: Immunological serum analyses (ELISA) following E. coli administration; type: in vivo, mice; conditions: 6 h after E. coli administration
Method: as §1

[4] = test system: parental and multidrug resistant tumor cells; conditions: cited from earlier work
[5] = PROWESS trial, compared to placebo; cited from earlier work
[6] = cited from earlier work

Compound	protection efficacy against mortality in endotoxin induced sepsis ([1]; 1 mg/kg i.p. single dose)	protection efficacy against mortality in endotoxin induced sepsis ([1]; 2 mg/kg i.p. single dose) [%]	protection efficacy against mortality in sepsis induced by Gram-negative bacteria (E. coli (ATCC-25992); 0.75 mg/kg/day i.p. for three days)	protection efficacy against mortality in sepsis induced by Gram-negative bacteria (E. coli (ATCC-25992); 1 mg/kg/day i.p. for three days)	blood urea nitrogen (kidney dysfunction biomarker) ([2]; FIG. 4A)	serum creatinine (kidney dysfunction biomarker) ([2]; FIG. 4B)	alanine transferase (liver dysfunction biomarker) ([2]; FIG. 4C)	plasma albumin level ([2]; FIG. 4D)	total creatinine kinase (marker of tissue injury) ([2]; FIG. 4E)	total lactate dehydrogenase (marker of tissue injury) ([2]; FIG. 4F)	TNF-α level ([3]; FIG. 5A)	IL-1α level ([3]; FIG. 5B)	IL-2 level ([3]; FIG. 5C)	IL-10 level ([3]; FIG. 5D)	cytotoxicity to parental and multidrug resistant tumor cells [4]	absolute decrease in mortality rate [5] [%]	relative risk reduction (mortality) [5] [%]	efficacy in sepsis patients ([6]; patients with a low risk of death or pediatric patients)	28-day mortality rate ([6]; subgroup with recent surgery and single-organ dysfunction, placebo 14.1%, P=0.03) [%]
CC1=CC(=O)C(C(C)C)=CC1=O [thymoquinone, 2-isopropyl-5-methyl-1,4-benzoquinone]	about 80%	~90	about 90%	about 90%	Important reductions	Important reductions	Important reductions	improvement in albumin level	Important reductions	Important reductions	Significant reductions	Significant reductions	Significant reductions	Significant reductions	cytotoxic				
drotrecogin alfa																6	19	not effective	20.7
